Measured values from article PMC4672351, “Drug-Drug Interaction Potentials of Tyrosine Kinase Inhibitors via Inhibition of UDP-Glucuronosyltransferases” (Scientific Reports, 2015).
Where “and” joins values, the source holds several entries; their conditions need not be identical. Equal values may be shown once.

Tests used:
UGT1A4 = target: T1, UGT1A4 (Homo sapiens, UniProt P22310); test: Prediction of DDI risk (AUCi/AUC) from in vitro data, UGT1A4 substrates; parameters: purchased BD Gentest (Woburn, MA); host or cells: baculovirus-infected insect cells; details: fm is 1
T1 sequence (P22310 29-534): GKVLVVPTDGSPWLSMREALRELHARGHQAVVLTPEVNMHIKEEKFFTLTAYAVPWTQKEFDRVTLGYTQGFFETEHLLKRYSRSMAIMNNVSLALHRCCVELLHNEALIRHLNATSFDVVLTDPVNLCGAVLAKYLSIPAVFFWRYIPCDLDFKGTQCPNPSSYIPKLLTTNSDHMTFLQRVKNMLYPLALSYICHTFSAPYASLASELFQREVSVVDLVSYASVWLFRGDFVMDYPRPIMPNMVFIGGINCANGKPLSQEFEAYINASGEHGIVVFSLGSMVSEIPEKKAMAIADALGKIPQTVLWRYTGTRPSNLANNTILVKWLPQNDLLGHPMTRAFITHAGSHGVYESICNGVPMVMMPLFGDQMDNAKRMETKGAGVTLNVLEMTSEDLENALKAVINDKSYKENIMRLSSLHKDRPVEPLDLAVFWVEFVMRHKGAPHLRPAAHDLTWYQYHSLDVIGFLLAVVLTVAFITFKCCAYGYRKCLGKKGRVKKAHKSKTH
Protocol: The ratio was calculated based on the eq.

[1] = clinical study; ref [16]; cited from earlier work
UGT1A1 [2] = target: T2, UGT1A1 (Homo sapiens, UniProt P22309); details: SN-38 substrate
T2 sequence (P22309 26-533): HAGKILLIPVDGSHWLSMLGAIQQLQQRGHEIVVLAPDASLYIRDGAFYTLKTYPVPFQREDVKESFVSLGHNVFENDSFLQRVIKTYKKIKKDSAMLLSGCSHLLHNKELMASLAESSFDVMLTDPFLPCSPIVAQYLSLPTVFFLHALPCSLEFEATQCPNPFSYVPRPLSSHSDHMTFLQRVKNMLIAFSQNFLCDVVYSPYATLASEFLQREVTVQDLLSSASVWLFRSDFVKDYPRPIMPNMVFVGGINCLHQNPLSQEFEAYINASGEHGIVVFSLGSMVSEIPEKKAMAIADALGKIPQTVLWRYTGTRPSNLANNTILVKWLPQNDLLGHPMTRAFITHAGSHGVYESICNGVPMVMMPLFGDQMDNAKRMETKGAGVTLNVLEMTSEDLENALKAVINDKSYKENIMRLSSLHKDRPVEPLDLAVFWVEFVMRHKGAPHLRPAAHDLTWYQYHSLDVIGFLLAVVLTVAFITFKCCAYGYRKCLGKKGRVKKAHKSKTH
Protocol: SN-38 glucuronidation activity was determined with a slight modification of a previously published method[13].

UGT1A1 [3] = target: T2, UGT1A1; details: fm is 1; clinical doses

| SMILES | Predicted AUCi/AUC ratio of UGT1A4 substrates (UGT1A4) | Increase in the AUC of SN-38 on co-administration with irinotecan [1] | inhibition type, UGT1A1 (UGT1A1 [2]) | Predicted increase in AUC of UGT1A1 substrates (4-MU and SN-38) (UGT1A1 [3]) |
| --- | --- | --- | --- | --- |
| CNC(=O)c1ccccc1Sc1ccc2c(/C=C/c3ccccn3)n[nH]c2c1 [Axitinib, axitinib] | ~1 | – | – | – |
| CS(=O)(=O)CCNCc1ccc(-c2ccc3ncnc(Nc4ccc(OCc5cccc(F)c5)c(Cl)c4)c3c2)o1 [Lapatinib, lapatinib] | – | 41% and ~ 40% | non-competitive | ~ 25% |
